Experimental data from ChEMBL document CHEMBL1143875, “Synthesis and structure-activity relationships of thiadiazole-derivatives as potent and orally active peroxisome proliferator-activated receptors alpha/delta dual agonists” (Bioorg Med Chem, 2008).
Calls of active or inactive are those of the source. No cut-off for these calls is given here.

Experiments:
[1] = molecular target: T1, Peroxisome proliferator-activated receptor alpha (Homo sapiens) (UniProt Q07869); experiment: Agonist activity at human PPARalpha-Gal4 in HEK293 cells by luciferase reporter assay relative to (S)-2-{2-[1-ethyl-3-(4-trifluoro-methoxyphenyl)ureido]indan-5-ylsulfanyl}-2-methylpropionic acid; format: functional, cell-based
T1 sequence (whole entry): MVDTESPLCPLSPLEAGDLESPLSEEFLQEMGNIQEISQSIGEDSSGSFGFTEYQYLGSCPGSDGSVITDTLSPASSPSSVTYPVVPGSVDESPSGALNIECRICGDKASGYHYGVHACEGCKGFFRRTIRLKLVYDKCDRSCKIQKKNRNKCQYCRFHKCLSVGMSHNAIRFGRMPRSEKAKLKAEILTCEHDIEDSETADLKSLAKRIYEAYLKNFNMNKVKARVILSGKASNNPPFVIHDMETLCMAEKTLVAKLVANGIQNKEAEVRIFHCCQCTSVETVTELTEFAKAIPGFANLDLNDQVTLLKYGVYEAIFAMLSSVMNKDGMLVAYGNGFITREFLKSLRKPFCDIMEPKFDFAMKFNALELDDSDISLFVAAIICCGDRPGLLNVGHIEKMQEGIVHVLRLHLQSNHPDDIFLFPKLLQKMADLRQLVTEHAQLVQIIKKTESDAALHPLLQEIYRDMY

[2] = molecular target: T2, Peroxisome proliferator-activated receptor alpha (Homo sapiens, UniProt Q07869); experiment: Agonist activity at human PPARalpha-Gal4 in HEK293 cells by luciferase reporter assay; format: functional, cell-based
T2 sequence (Q07869 whole entry): T1 sequence (whole entry)

[3] = molecular target: T3, Peroxisome proliferator-activated receptor delta (Homo sapiens, UniProt Q03181); experiment: Agonist activity at human PPARdelta-Gal4 in HEK293 cells by luciferase reporter assay; format: functional, cell-based
T3 sequence (Q03181 whole entry): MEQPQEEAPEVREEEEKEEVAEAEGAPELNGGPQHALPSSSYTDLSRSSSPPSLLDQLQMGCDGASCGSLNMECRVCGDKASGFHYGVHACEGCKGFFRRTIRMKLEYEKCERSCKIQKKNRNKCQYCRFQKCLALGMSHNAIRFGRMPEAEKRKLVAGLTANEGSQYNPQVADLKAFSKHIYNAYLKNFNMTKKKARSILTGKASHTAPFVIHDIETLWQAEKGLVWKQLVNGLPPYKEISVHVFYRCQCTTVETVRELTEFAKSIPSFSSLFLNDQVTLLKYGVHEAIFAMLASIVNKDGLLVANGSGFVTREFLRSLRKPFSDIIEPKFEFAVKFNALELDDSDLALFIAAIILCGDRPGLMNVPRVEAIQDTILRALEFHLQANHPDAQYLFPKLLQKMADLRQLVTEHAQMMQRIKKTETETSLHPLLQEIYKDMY

[4] = Activity at liver X receptor
[5] = molecular target: T4, Bile acid receptor (Homo sapiens) (UniProt Q96RI1); experiment: Activity at farnesoid X receptor
T4 sequence (whole entry): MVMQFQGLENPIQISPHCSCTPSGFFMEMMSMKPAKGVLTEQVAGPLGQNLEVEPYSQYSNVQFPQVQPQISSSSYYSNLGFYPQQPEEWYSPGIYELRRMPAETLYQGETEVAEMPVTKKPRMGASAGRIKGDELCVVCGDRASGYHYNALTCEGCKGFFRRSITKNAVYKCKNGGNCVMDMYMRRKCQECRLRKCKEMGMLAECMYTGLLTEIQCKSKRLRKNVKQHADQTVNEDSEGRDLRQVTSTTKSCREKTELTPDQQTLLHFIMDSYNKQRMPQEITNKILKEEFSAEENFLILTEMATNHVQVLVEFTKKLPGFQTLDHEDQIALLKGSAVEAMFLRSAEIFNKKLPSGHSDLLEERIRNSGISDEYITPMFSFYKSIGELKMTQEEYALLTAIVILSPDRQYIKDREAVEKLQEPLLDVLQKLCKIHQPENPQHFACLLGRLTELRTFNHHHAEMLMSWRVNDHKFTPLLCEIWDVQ

[6] = molecular target: T5, Glucocorticoid receptor (Homo sapiens) (UniProt P04150); experiment: Activity at glucocorticoid receptor
T5 sequence (whole entry): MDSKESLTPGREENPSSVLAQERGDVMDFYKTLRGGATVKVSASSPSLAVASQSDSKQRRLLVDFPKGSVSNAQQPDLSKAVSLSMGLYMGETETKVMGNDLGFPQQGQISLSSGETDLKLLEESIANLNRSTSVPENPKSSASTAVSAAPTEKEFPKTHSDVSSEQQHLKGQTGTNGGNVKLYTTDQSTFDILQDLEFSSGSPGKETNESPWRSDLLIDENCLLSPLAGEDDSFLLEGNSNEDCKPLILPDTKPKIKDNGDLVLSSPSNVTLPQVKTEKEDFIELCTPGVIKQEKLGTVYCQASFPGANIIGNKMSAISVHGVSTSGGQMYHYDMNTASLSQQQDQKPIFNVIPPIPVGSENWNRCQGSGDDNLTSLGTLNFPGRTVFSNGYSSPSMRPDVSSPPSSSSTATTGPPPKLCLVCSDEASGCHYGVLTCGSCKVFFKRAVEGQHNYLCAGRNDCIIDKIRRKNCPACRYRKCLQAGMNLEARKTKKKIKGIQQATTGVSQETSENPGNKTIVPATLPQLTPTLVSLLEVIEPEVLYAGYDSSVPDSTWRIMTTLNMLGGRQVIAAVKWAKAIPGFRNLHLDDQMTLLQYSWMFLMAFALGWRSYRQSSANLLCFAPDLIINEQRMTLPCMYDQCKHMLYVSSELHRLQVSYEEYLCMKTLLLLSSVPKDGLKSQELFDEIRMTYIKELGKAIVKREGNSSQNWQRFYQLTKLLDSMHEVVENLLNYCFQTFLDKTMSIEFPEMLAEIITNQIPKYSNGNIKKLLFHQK

[7] = Activity at retinoic acid receptor
[8] = Activity at retinoic acid X receptor
[9] = molecular target: T6, Peroxisome proliferator-activated receptor gamma (Homo sapiens, UniProt P37231); experiment: Agonist activity at human PPARgamma-Gal4 in HEK293 cells by luciferase reporter assay; format: functional, cell-based
T6 sequence (P37231 whole entry): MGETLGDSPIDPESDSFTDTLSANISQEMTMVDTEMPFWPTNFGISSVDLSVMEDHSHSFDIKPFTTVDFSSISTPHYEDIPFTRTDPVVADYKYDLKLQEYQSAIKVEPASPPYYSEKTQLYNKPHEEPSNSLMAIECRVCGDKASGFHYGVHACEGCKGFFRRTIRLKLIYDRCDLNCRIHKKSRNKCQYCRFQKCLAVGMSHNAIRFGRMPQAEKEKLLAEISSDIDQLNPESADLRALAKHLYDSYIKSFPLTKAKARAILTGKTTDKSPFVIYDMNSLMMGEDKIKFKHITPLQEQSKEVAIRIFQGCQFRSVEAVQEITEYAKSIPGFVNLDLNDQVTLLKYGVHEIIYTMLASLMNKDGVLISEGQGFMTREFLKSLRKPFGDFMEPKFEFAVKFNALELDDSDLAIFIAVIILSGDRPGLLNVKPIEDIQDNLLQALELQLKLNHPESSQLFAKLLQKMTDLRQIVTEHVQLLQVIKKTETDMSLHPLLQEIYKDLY

SMILES	Efficacy [1] [%]	also measured
Cc1ccc(-c2nsc(CSc3ccc(OC(C)(C)C(=O)O)c(C)c3)n2)cc1Cl	74	EC50 [2]: 0.07 µM; EC50 [3]: 0.025 µM
Cc1cc(SCc2cc(-c3ccc(C(F)(F)F)cc3)sn2)ccc1OCC(=O)O	43	–
Cc1cc(SCc2nsc(-c3ccc(C(F)(F)F)cc3)n2)ccc1OC(C)(C)C(=O)O	38	–
Cc1cc(SCc2nc(-c3ccc(OC(F)(F)F)cc3)ns2)ccc1OC(C)(C)C(=O)O	44	Activity [4]: inactive; Activity [5]: inactive; Activity [6]: inactive; Activity [7]: inactive; Activity [8]: inactive
Cc1cc(SCc2cc(-c3ccc(C(F)(F)F)cc3)ns2)ccc1OCC(=O)O	43	EC50 [2]: 1.29 µM
CC(C)(Oc1ccc(SCc2nc(-c3ccc(C(F)(F)F)cc3)ns2)cc1)C(=O)O	–	EC50 [9]: > 3 µM; EC50 [2]: 0.155 µM; EC50 [3]: 0.02 µM
Cc1cc(OCc2nc(-c3ccc(C(F)(F)F)c(F)c3)ns2)ccc1OC(C)(C)C(=O)O	65	EC50 [2]: 0.086 µM
Cc1cc(OCc2nc(-c3ccc(OC(F)(F)F)cc3)ns2)ccc1OC(C)(C)C(=O)O	80	–
Cc1cc(SCc2nsc(-c3ccc(OC(F)(F)F)cc3)n2)ccc1OC(C)(C)C(=O)O	47	–
Cc1cc(SCc2nc(-c3ccc(C(F)(F)F)c(F)c3)ns2)ccc1OC(C)(C)C(=O)O	53	EC50 [3]: 0.005 µM
Cc1ccc(-c2nsc(COc3ccc(OC(C)(C)C(=O)O)c(C)c3)n2)cc1C	58	–
Cc1cc(SCc2nc(-c3ccc(OC(F)(F)F)cc3)ns2)ccc1OC1(C(=O)O)CCCC1	31	–
Cc1cc(OCc2nc(-c3ccc(Cl)c(Cl)c3)ns2)ccc1OC(C)(C)C(=O)O	83	–
Cc1cc(SCc2nc(-c3ccc(Cl)cc3Cl)ns2)ccc1OC(C)(C)C(=O)O	33	–
Cc1cc(SCc2nc(-c3ccc(C(F)(F)F)cc3)ns2)ccc1OC(C)(C)C(=O)O	51	–
Cc1cc(SCCc2nc(-c3ccc(Cl)c(Cl)c3)ns2)ccc1OC(C)(C)C(=O)O	71	EC50 [9]: 0.815 µM; EC50 [3]: 0.009 µM
Cc1ccc(-c2nsc(COc3ccc(OC(C)(C)C(=O)O)c(C)c3)n2)cc1Cl	75	–
Cc1cc(SCc2cc(-c3ccc(C(F)(F)F)cc3)on2)ccc1OCC(=O)O	41	–
Cc1ccc(-c2nsc(CSc3ccc(OC(C)(C)C(=O)O)c(C)c3)n2)cc1C	45	EC50 [9]: > 3 µM
Cc1cc(OCc2nc(-c3ccc(C(F)(F)F)cc3)ns2)ccc1OC(C)(C)C(=O)O	71	–
Cc1cc(SCc2nc(-c3ccc(OC(F)(F)F)c(Cl)c3)ns2)ccc1OC(C)(C)C(=O)O	73	EC50 [3]: 0.003 µM
Cc1cc(SCCc2nc(-c3ccc(C(F)(F)F)cc3)ns2)ccc1OC(C)(C)C(=O)O	65	–
Cc1cc(OCc2nc(-c3ccc(OC(F)(F)F)c(Cl)c3)ns2)ccc1OC(C)(C)C(=O)O	101	–
Cc1cc(SCc2nc(-c3ccc(C(F)(F)F)cc3)ns2)ccc1OCC(=O)O	42	–
Cc1cc(SCc2nc(-c3ccc(Cl)cc3)ns2)ccc1OC(C)(C)C(=O)O	38	–
